Activity calls are given as the source filed them.
How the values were obtained:
Trypanosoma cruzi [1] = test: (§1) Antitrypanosomal activity against Trypanosoma cruzi K98 bloodstream form infected in C3H/HeNk mouse assessed as effect on RR interval at 15 mg/kg/day, po administered via gavage for 30 consecutive days starting from 90 days post infection and measured at 120 to 170 days post infection in presence of benznidazole by electrocardiographic analysis; format: functional, organism-based
Trypanosoma cruzi [2] = test: as §1, with “QT” for “RR”; format: functional, organism-based
Trypanosoma cruzi [3] = test: as §1, with “reduction in parasite burden in blood” for “effect on RR interval”, “180” for “120 to 170”, “qRT-PCR” for “electrocardiographic”; format: functional, organism-based
Vero = test: Cytotoxicity against African green monkey Vero cells at 0.5 to 20 uM after 72 hrs by propidium iodide staining based flow cytometric analysis; format: cell-based; conditions: chlorocebus sabaeus
[4] = Toxicity in C3H/HeNk mouse infected with Trypanosoma cruzi K98 bloodstream form assessed as body weight gain at 15 mg/kg/day, po administered via gavage for 30 consecutive days starting from 90 days post infection measured up to 120 days post infection in presence of benznidazole; format: organism-based; conditions: in vivo
Trypanosoma cruzi [5] = test: Antitrypanosomal activity against Trypanosoma cruzi K98 bloodstream form infected in C3H/HeNk mouse assessed as adipocytes replacement in skeletal muscle by measuring number of adipocyte at 15 mg/kg/day, po administered via gavage for 30 consecutive days starting from 90 days post infection and measured at 180 days post infection in presence of benznidazole by hematoxylin and eosin staining based …; format: functional
Trypanosoma cruzi [6] = test: as §1, with “change in QRS morphology” for “effect on RR interval”, “120” for “120 to 170”, “analysis (reference value: 25 %)” for “analysis”; format: functional
Trypanosoma cruzi [7] = test: as §1, with “reduction in parasite burden in cardiac muscle” for “effect on RR interval”, “180” for “120 to 170”, “qRT-PCR” for “electrocardiographic”; format: functional, organism-based
Trypanosoma cruzi [8] = test: as §1, with “heart rate” for “RR interval”; format: functional, organism-based
Trypanosoma cruzi [9] = test: as §1, with “reduction in cardiac tissue inflammation” for “effect on RR interval”, “180” for “120 to 170”, “hematoxylin and eosin staining based assay” for “electrocardiographic analysis”; format: functional, organism-based
Trypanosoma cruzi [10] = test: as §1, with “change in QRS morphology” for “effect on RR interval”, “at” for “at 120 to”, “analysis (reference value: 25 %)” for “analysis”; format: functional
Trypanosoma cruzi [11] = test: as §1, with “PR” for “RR”; format: functional, organism-based
Trypanosoma cruzi [12] = test: as §1, with “heart rate duration” for “RR interval”; format: functional, organism-based
Trypanosoma cruzi [13] = test: as §1, with “reduction in parasite burden in skeletal muscle” for “effect on RR interval”, “180” for “120 to 170”, “qRT-PCR” for “electrocardiographic”; format: functional, organism-based
Trypanosoma cruzi [14] = test: as §1, with “PR” for “RR”, “30 to 75” for “15”, “infection” for “infection in presence of benznidazole”; format: functional, organism-based
Trypanosoma cruzi [15] = test: as §1, with “heart rate duration” for “RR interval”, “30 to 75” for “15”, “infection” for “infection in presence of benznidazole”; format: functional, organism-based
Trypanosoma cruzi [16] = test: (§2) Antitrypanosomal activity against Trypanosoma cruzi K98 bloodstream form infected in C3H/HeNk mouse assessed as reduction in parasite burden in skeletal muscle at 30 to 75 mg/kg/day, po administered via gavage for 30 consecutive days starting from 90 days post infection and measured at 180 days post infection by qRT-PCR analysis; format: functional, organism-based
[17] = Toxicity in C3H/HeNk mouse infected with Trypanosoma cruzi K98 bloodstream form assessed as decrease in body weight at 15 mg/kg/day, po administered via gavage for 30 consecutive days starting from 90 days post infection measured at 150 days post infection in presence of benznidazole; format: organism-based; conditions: in vivo
Trypanosoma cruzi [18] = test: (§3) Antitrypanosomal activity against Trypanosoma cruzi K98 bloodstream form infected in C3H/HeNk mouse assessed as change in QRS morphology at 30 mg/kg/day, po administered via gavage for 30 consecutive days starting from 90 days post infection and measured at 170 days post infection by electrocardiographic analysis (reference value: 25 %); format: functional
Trypanosoma cruzi [19] = test: as §1, with “QT” for “RR”, “30 to 75” for “15”, “infection” for “infection in presence of benznidazole”; format: functional, organism-based
[20] = Toxicity in C3H/HeNk mouse infected with Trypanosoma cruzi K98 bloodstream form assessed as decrease in body weight at 30 mg/kg/day, po administered via gavage for 30 consecutive days starting from 90 days post infection measured at 150 days post infection; format: organism-based; conditions: in vivo
Trypanosoma cruzi [21] = test: as §2, with “blood” for “skeletal muscle”; format: functional, organism-based
Trypanosoma cruzi [22] = test: as §2, with “in” for “in parasite burden in”, “tissue inflammation” for “muscle”, “at” for “at 30 to”, “hematoxylin and eosin staining based assay” for “qRT-PCR analysis”; format: functional, organism-based
Trypanosoma cruzi [23] = test: as §1, with “30 to 75” for “15”, “infection” for “infection in presence of benznidazole”; format: functional, organism-based
Trypanosoma cruzi [24] = test: as §2, with “cardiac” for “skeletal”; format: functional, organism-based
[25] = Toxicity in C3H/HeNk mouse infected with Trypanosoma cruzi K98 bloodstream form assessed as decrease in body weight at 75 mg/kg/day, po administered via gavage for 30 consecutive days starting from 90 days post infection measured at 150 days post infection; format: organism-based; conditions: in vivo
[26] = Toxicity in C3H/HeNk mouse infected with Trypanosoma cruzi K98 bloodstream form assessed as decrease in body weight at 30 mg/kg/day, po administered via gavage for 30 consecutive days starting from 90 days post infection measured at 150 days post infection in presence of benznidazole; format: organism-based; conditions: in vivo
Trypanosoma cruzi [27] = test: as §1, with “heart rate” for “RR interval”, “30 to 75” for “15”, “infection” for “infection in presence of benznidazole”; format: functional, organism-based
[28] = Toxicity in C3H/HeNk mouse infected with Trypanosoma cruzi K98 bloodstream form assessed as body weight gain at 75 mg/kg/day, po administered via gavage for 30 consecutive days starting from 90 days post infection measured up to 120 days post infection; format: organism-based; conditions: in vivo
Trypanosoma cruzi [29] = test: as §3, with “120” for “170”; format: functional
Trypanosoma cruzi [30] = test: as §3, with “as” for “as change in”, “at 75” for “at 30”; format: functional
[31] = Toxicity in C3H/HeNk mouse infected with Trypanosoma cruzi K98 bloodstream form assessed as body weight gain at 30 mg/kg/day, po administered via gavage for 30 consecutive days starting from 90 days post infection measured up to 120 days post infection; format: organism-based; conditions: in vivo
Trypanosoma cruzi [32] = test: as §2, with “cardiac tissue inflammation” for “parasite burden in skeletal muscle”, “hematoxylin and eosin staining based assay” for “qRT-PCR analysis”; format: functional, organism-based
Trypanosoma cruzi [33] = test: as §3, with “at 75” for “at 30”, “at 120” for “at 170”; format: functional
Trypanosoma cruzi [34] = test: as §2, with “at 30 mg/kg/day, po” for “at 30 to 75 mg/kg/day, po”, “post infection in presence of benznidazole by qRT-PCR” for “post infection by qRT-PCR”; format: functional, organism-based
Trypanosoma cruzi [35] = test: (§4) Antitrypanosomal activity against Trypanosoma cruzi K98 bloodstream form infected in C3H/HeNk mouse assessed as change in QRS morphology at 30 mg/kg/day, po administered via gavage for 30 consecutive days starting from 90 days post infection and measured at 120 days post infection in presence of benznidazole by electrocardiographic analysis (reference value: 25 %); format: functional
Trypanosoma cruzi [36] = test: as §4, with “170” for “120”; format: functional
Trypanosoma cruzi [37] = test: as §1, with “QT” for “RR”, “30” for “15”; format: functional, organism-based
Trypanosoma cruzi [38] = test: Antitrypanosomal activity against Trypanosoma cruzi K98 bloodstream form infected in C3H/HeNk mouse assessed as reduction in cardiac tissue inflammation at 30 mg/kg/day, po administered via gavage for 30 consecutive days starting from 90 days post infection and measured at 180 days post infection in presence of benznidazole by hematoxylin and eosin staining based assay; format: functional, organism-based
Trypanosoma cruzi [39] = test: (§5) Antitrypanosomal activity against Trypanosoma cruzi K98 bloodstream form infected in C3H/HeNk mouse assessed as reduction in parasite burden in cardiac muscle at 30 mg/kg/day, po administered via gavage for 30 consecutive days starting from 90 days post infection and measured at 180 days post infection in presence of benznidazole by qRT-PCR analysis; format: functional, organism-based
Trypanosoma cruzi [40] = test: as §5, with “blood” for “cardiac muscle”; format: functional, organism-based
Trypanosoma cruzi [41] = test: as §1, with “30” for “15”; format: functional, organism-based
Trypanosoma cruzi [42] = test: as §1, with “PR” for “RR”, “30” for “15”; format: functional, organism-based
[43] = Toxicity in C3H/HeNk mouse infected with Trypanosoma cruzi K98 bloodstream form assessed as body weight gain at 30 mg/kg/day, po administered via gavage for 30 consecutive days starting from 90 days post infection measured up to 120 days post infection in presence of benznidazole; format: organism-based; conditions: in vivo
Trypanosoma cruzi [44] = test: as §1, with “heart rate” for “RR interval”, “30” for “15”; format: functional, organism-based
Trypanosoma cruzi [45] = test: as §1, with “heart rate duration” for “RR interval”, “30” for “15”; format: functional, organism-based
Trypanosoma cruzi [46] = test: Antitrypanosomal activity against Trypanosoma cruzi K98 bloodstream form infected in C3H/HeNk mouse assessed as adipocytes replacement in skeletal muscle by measuring number of adipocyte at 30 mg/kg/day, po administered via gavage for 30 consecutive days starting from 90 days post infection and measured at 180 days post infection in presence of benznidazole by hematoxylin and eosin staining based …; format: functional

Measured: Activity

COC(=O)C1=C(C)NC(C)=C(C(=O)O[C@@H]2CCCN(Cc3ccccc3)C2)[C@@H]1c1cccc([N+](=O)[O-])c1.Cl
50%: Trypanosoma cruzi [6] | Trypanosoma cruzi [10]
Non-Toxic: Vero | [4]
active: Trypanosoma cruzi [3] | Trypanosoma cruzi [9] | Trypanosoma cruzi [13]
1 - 3: Trypanosoma cruzi [5]
inactive: Trypanosoma cruzi [1] | Trypanosoma cruzi [2] | Trypanosoma cruzi [7] | Trypanosoma cruzi [8] | Trypanosoma cruzi [11] | Trypanosoma cruzi [12]

O=C(Cn1ccnc1[N+](=O)[O-])NCc1ccccc1 [BENZNIDAZOLE]
Toxic: [25]
inactive: Trypanosoma cruzi [14] | Trypanosoma cruzi [15] | Trypanosoma cruzi [19] | Trypanosoma cruzi [22] | Trypanosoma cruzi [23] | Trypanosoma cruzi [27]
Non-Toxic: Vero | [17] | [20] | [26] | [28] | [31]
active: Trypanosoma cruzi [16] | Trypanosoma cruzi [21] | Trypanosoma cruzi [24] | Trypanosoma cruzi [32]
80%: Trypanosoma cruzi [30]
0%: Trypanosoma cruzi [18] | Trypanosoma cruzi [29] | Trypanosoma cruzi [33]

CC(C)/N=c1\cc2n(-c3ccc(Cl)cc3)c3ccccc3nc-2cc1Nc1ccc(Cl)cc1 [CLOFAZIMINE]
1 - 3: Trypanosoma cruzi [46]
Non-Toxic: Vero | [43]
active: Trypanosoma cruzi [34] | Trypanosoma cruzi [40]
0%: Trypanosoma cruzi [35] | Trypanosoma cruzi [36]
inactive: Trypanosoma cruzi [37] | Trypanosoma cruzi [38] | Trypanosoma cruzi [39] | Trypanosoma cruzi [41] | Trypanosoma cruzi [42] | Trypanosoma cruzi [44] | Trypanosoma cruzi [45]

Reference: ChEMBL document CHEMBL4312001, “Combined therapy with Benznidazole and repurposed drugs Clofazimine and Benidipine for chronic Chagas disease” (Eur J Med Chem, 2019)
